Here are results for 11 molecules from US12043625B2, “Pyridine derivatives with c-linked cyclic substituents as cGAS inhibitors” (BOEHRINGER INGELHEIM INTERNATIONAL GMBH, priority 2021, dated 2024).

In assay [1] the test system is IFN induction in cGAMP-stimulated THP1 cells. Description: cGAMP stimulated counter cell assay, THP1-Dual cells, Lucia luciferase reporter (THP1(cGAMP) IC50).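 Note: IRF-driven Lucia luciferase luminescence after 18 h at 37° C, compound series topping at 10 µM with 1% DMSO, unstimulated wells as 0% and DMSO wells as 100%.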 The assay is classed as cell-based. As to conditions: Homo sapiens, THP-1, THP1-Dual cells stimulated with 10 μM cGAMP. In general terms: In a reporter assay the amount or activity of a reporter protein is the signal.
Excerpt: 6.2 Method: Human cGAS Cell Assay and cGAMP Stimulated Counter Cell Assay (THP1(vir) IC50 and THP1(cGAMP) IC50)
THP1-Dual™ cells (InvivoGen #thpd-nfis) expressing IRF dependent Lucia luciferase reporter were used as basis for both assays.
(§1) For the counter assay, cells were stimulated by cGAMP (SigmaAldrich #SML1232) to activate the identical pathway independent and directly downstream of cGAS (measurement of THP1(cAMP) IC50). Pathway activity was monitored by measuring the Lucia luciferase activity induced by either DNA stimulated cGAS enzyme activity (measurement of THP1^(vir) IC50) or by cGAMP directly (measurement of THP1(cAMP) IC50, counter assay).
Compounds were delivered in 10 mM DMSO solution, serially diluted and transferred to the 384 well assay plate (Greiner #781201) using an Echo acoustic dispenser. Typically, 8 concentrations were used with the highest concentration at 10 μM in the final assay volume followed by ˜1:5 dilution steps. DMSO concentration was set to 1% in the final assay volume. The 384 well assay plate contained 21 test compounds (column 1-22), and DMSO in column 23 and 24.
(§2) 30 μL of the cell/virus-mix were added to each well of the compound plate from column 1-23 via MultiDrop Combi dispenser (5000 cells/well). In column 24, 30 μl/5000 cells/well without virus were added as a low control.
(§3) The plates were then incubated for 18 h at 37° C. in a humidified incubator.
(§4) Following that, 15 μL of QuantiLuc detection reagent (InvivoGen #rep-qlcg5) were added to each well using a MultiDrop Combi. Measurement was done immediately after the addition using an EnVision reader (US-luminescence read-mode).
Data Evaluation and Calculation:
(§5) For data evaluation and calculation, the measurement of the low control was set as 0% control and the measurement of the high control was set as 100% control. The IC50 values were calculated using the standard 4 parameter logistic regression formula. Calculation: [y=(a−d)/(1+(x/c)^b)+d], a=low value, d=high value; x=conc M; c=1C50 M; b=slope

The subject of the next assay is cGAS. As to conditions: as disclosed on page 45 of WO 2020/142729; read-out: biochemical (in vitro) IC50-value group; cited from earlier work.
For assay [2], the system named is IFN induction in dsDNA-stimulated human whole blood. Description: Human whole blood assay, dsDNA transfection, IFNα2a production (hWB IC50).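 Note: cGAS pathway activity, IFNα2a in plasma by MSD immunoassay after 22 h at 37 °C, 8 concentrations up to 10 µM in 0.1% DMSO, DMSO controls.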 The assay is classed as cell-based.
Description: For the detection of cellular cGAS activity human whole blood was stimulated by transfection with double stranded DNA. Pathway activity was monitored by measuring the IFNα2α production.
Typically, 8 concentrations were used with the highest concentration at 10 μM in the final assay volume followed by ˜1:5 dilution steps. DMSO concentration was set to 0.1% in the final assay volume. The 96-well assay plate contained 10 test compounds, and DMSO in control wells.
Whole blood was kept at room temperature for a maximum of 3 hours after collection until use in the assay.
160 μl of the whole blood samples was transferred to each well of the 96-well assay plates filled with compound/OptiMEM. All assay plates were prepared as duplicates with blood from different donors. Blood plates were kept at room temperature for 60 minutes and continuous shaking with 450 rpm, covered with the lid, but not sealed.
20 μl OptiMEM and 9.6:1 Fugene was added to all low control wells.
After covering assay plates with aera seals and the lid, blood plates were kept at room temperature for 30 minutes and continuous shaking with 450 rpm, followed by an overnight incubation of 22 h at 37° C. in the incubator, without shaking.
U-Plex MSD GOLD 96-well Small Spot Strepavidin SECTOR Plates (Meso Scale Diagnostics #L45SA-5) were coated with 25 μl diluted capture antibody. Coated plates were incubated for 60 min at room temperature under continuous shaking at 700 rpm. MSD IFNα-2a plates were washed three times with 150 μl wash buffer (1×HBSS, 0.05% Tween).
After blocking the plates with 100 μl block solution/well (1×HBSS with 0.2% Tween, 2% BSA) for 60 min at room temperature and continuous shaking at 700 rpm, plates were emptied as dry as possible by dumping just before continuing with the human plasma.
Whole Blood assay plates were centrifuged at 1600 rpm for 10 minutes. 25 μl of supernatant was transferred with a pipetting robot from each whole blood plate to the corresponding IFNα-2a plate.
Plates were sealed with microplate seals and kept at room temperature again under continuous shaking at 700 rpm for two hours.
Next MSD IFNα-2a plates were washed three times with 150 μl wash buffer (1×HBSS, 0.05% Tween), before adding 25 μl MSD SULFO-TAG IFNα-2a Antibody solution (1:100 diluted in Diluent 3 (Meso Scale Diagnostics #R50AP-2) to each well of the plates.
Afterwards plates were sealed with microplate seals and kept at room temperature again under continuous shaking at 700 rpm for two hours. Finally, MSD IFNα-2α plates were washed three times with 150 μl wash buffer (1×HBSS, 0.05% Tween). 150 μl 2× Read buffer was added to each well and plates were immediately measured with the MSD Sector S600 Reader using the vendor barcode.
For data evaluation and calculation, % control calculation of each well was based on the mean of high (DNA stimulated control) and mean of low (unstimulated control) controls by using the following formula: [counts(sample)−counts(low))/(counts(high)−counts(low))]*100
The IC50 values were calculated using the standard 4 parameter logistic regression formula. Calculation: [y=(a−d)/(1+(x/c)^b)+d], a=low value, d=high value; x=conc M; c=1C50 M; b=slope
In assay [3] the test system is IFN induction in virus-stimulated THP1 cells. Description: Human cGAS cell assay, baculovirus-stimulated THP1-Dual cells, Lucia luciferase reporter (THP1(vir) IC50).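 For all read-outs here: IRF-dependent luminescence, 8 concentrations up to 10 µM in 1% DMSO, 0% = unstimulated cells, 100% = DMSO plus virus, counter assay stimulated with cGAMP downstream of cGAS.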 The format is cell-based. As to conditions: for IC50: Homo sapiens, THP-1; for Ratio THP(cGAMP) IC50/THP(vir) IC50: selectivity for cGAS inhibition.
Excerpt: THP1-Dual™ cells (InvivoGen #thpd-nfis) expressing IRF dependent Lucia luciferase reporter were used as basis for both assays. For the detection of cellular cGAS activity cells were stimulated by a baculovirus (pFastbac-1, Invitrogen, no coding insert) infection that delivers the cGAS enzyme stimulating double-stranded DNA (measurement of THP1(vir) IC50).
as §1
Typically, 8 concentrations were used with the highest concentration at 10 μM in the final assay volume followed by ˜1:5 dilution steps. DMSO concentration was set to 1% in the final assay volume. The 384 well assay plate contained 21 test compounds (column 1-22), and DMSO in column 23 and 24.
The baculovirus solution was then added 1:200 (may have varied according to virus batch) to the cells (measurement of THP1(vir) IC50).
as §2, §3, §4
Data Evaluation and Calculation:
as §5
For a further assay, the target named is Human cGAS (Homo sapiens (Human), UniProt Q8N884). Description: Human cGAS enzyme assay (hcGAS IC50, in vitro), cGAMP formation by RapidFire MS.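 Note: compounds preincubated 60 min, then GTP and ATP (30 µM each) added for 90 min at room temperature, cGAMP read relative to cyclic-di-GMP internal standard, no-enzyme/DNA wells as 0%.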 The format is biochemical. The note with it: 45 bp dsDNA, GTP/ATP.
Human cGAS, sequence (Q8N884 whole entry): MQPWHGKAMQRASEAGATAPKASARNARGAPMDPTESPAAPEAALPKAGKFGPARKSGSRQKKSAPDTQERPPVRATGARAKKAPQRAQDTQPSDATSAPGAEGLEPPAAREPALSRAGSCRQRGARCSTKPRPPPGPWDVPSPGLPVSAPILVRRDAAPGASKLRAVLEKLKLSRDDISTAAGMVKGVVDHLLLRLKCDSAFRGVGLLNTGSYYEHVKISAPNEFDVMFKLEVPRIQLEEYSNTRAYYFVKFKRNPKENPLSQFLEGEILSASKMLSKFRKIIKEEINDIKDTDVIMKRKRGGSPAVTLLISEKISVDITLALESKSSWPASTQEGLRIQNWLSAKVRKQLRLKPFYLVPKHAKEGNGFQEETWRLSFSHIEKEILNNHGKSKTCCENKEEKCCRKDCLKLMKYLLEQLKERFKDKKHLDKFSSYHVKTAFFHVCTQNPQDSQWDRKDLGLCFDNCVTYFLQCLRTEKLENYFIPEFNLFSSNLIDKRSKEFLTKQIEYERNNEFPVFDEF
Where [4] appears, read: baculovirus-stimulated THP1-Dual cells, 18 h.

As for `Cc1nc(N2C[C@@H](Cc3nn[nH]n3)C[C@H]2C(=O)O)c2oc3ccccc3c2n1` [Example 25, reference compound], the IC50 was over 17000 nM in assay [1]; under 100 nM with cGAS; over 9990 nM in assay [2]; 17000 nM in assay [3]; over 17000 nM in assay [3] (setting [4]).

Take `COc1cncc(-c2cnc(O[C@H]3C[C@@H](C(=O)O)N(c4nc(C(F)F)nc5c4oc4ccccc45)C3)c([C@@]3(F)CCOC[C@@H]3C)c2)c1` [Example 6.02]: the IC50 was over 16600 nM in assay [1], 6 nM against Human cGAS, 45 nM in assay [2] and 5 nM in assay [3] (setting [4]). Further, the “Ratio THP(cGAMP) IC50/THP(vir) IC50” value in assay [3] was over 3212.

For `O=C(O)[C@@H]1C[C@H](Oc2ncc(Cl)cc2C2(F)CCS(=O)(=O)CC2)CN1c1nc(C(F)(F)F)nc2c1oc1ccccc12` [Example 2.02], the IC50 in assay [1] is over 16600 nM; against Human cGAS, 4 nM; in assay [2], 89 nM; in assay [3] (setting [4]), 540 nM. The “Ratio THP(cGAMP) IC50/THP(vir) IC50” value in assay [3] is reported as over 31.

Consider `C[C@H]1CS(=O)(=O)CC[C@@]1(F)c1cc(Cl)cnc1O[C@H]1C[C@@H](C(=O)O)N(c2nc(C(F)F)nc3c2oc2ccccc23)C1` [Example 1.11], for which the IC50 in assay [1] is over 16600 nM; on Human cGAS, 2 nM; in assay [2], 194 nM; in assay [3] (setting [4]) it was 731 nM.

In the case of `C#Cc1cnc(O[C@H]2C[C@@H](C(=O)O)N(c3nc(C(F)F)nc4c3oc3ccccc34)C2)c([C@]2(F)CCS(=O)(=O)C(C)(C)C2)c1` [Example 1.15], the IC50 in assay [1] was 10200 nM; on Human cGAS it was 6 nM; in assay [2], 22 nM; in assay [3] (setting [4]), 11 nM. Also, the “Ratio THP(cGAMP) IC50/THP(vir) IC50” value in assay [3] came out at 963.

Regarding `C#Cc1cnc(O[C@H]2C[C@@H](C(=O)O)N(c3nc(C(F)(F)F)nc4c3oc3ccccc34)C2)c([C@]2(F)CCOC[C@@H]2C)c1` [Example 1.04], the IC50 was 24900 nM in assay [1], 4 nM against Human cGAS, 648 nM in assay [2] and 378 nM in assay [3] (setting [4]). In addition, the “Ratio THP(cGAMP) IC50/THP(vir) IC50” value in assay [3] is reported as 66.

On to `C#Cc1cnc(O[C@H]2C[C@@H](C(=O)O)N(c3nc(C(F)F)nc4c3oc3ccccc34)C2)c([C@@]2(F)CCN(C(C)=O)C[C@@H]2C)c1` [Example 2.20], for which the IC50 in assay [1] was determined as 9890 nM; at Human cGAS it was 4 nM; in assay [2] it was 25 nM; in assay [3] (setting [4]), 17 nM. The “Ratio THP(cGAMP) IC50/THP(vir) IC50” value in assay [3] was found to be 583.

With `CO[C@]1(c2cc(Cl)cnc2O[C@H]2C[C@@H](C(=O)O)N(c3nc(C(F)F)nc4c3oc3ccccc34)C2)CCS(=O)(=O)C[C@@H]1C` [Example 2.06], the IC50 in assay [1] is 14600 nM; against Human cGAS, 8 nM; in assay [2], 287 nM; in assay [3] (setting [4]) it was 314 nM. Also, the “Ratio THP(cGAMP) IC50/THP(vir) IC50” value in assay [3] is listed as 46.

In the case of `O=C(O)[C@@H]1C[C@H](Oc2ncc(Cl)cc2[C@]2(F)CCS(=O)(=O)C3(COC3)C2)CN1c1nc(C(F)F)nc2c1oc1ccccc12` [Example 1.20], the 50% inhibitory concentration (IC50) in assay [1] came to 15500 nM; on Human cGAS, 3 nM; in assay [2], 55 nM; in assay [3] (setting [4]), 139 nM. In addition, in assay [3], the “Ratio THP(cGAMP) IC50/THP(vir) IC50” value came to 111.

`C#Cc1cnc(O[C@H]2C[C@@H](C(=O)O)N(c3nc(C(F)F)nc4c3oc3ccccc34)C2)c(C2(F)CCS(=O)(=O)CC2)c1` [Example 2.03]: the 50% inhibitory concentration (IC50) in assay [1] was over 16600 nM; at Human cGAS it was 2 nM; in assay [2], 40 nM; in assay [3] (setting [4]), 112 nM. In addition, the “Ratio THP(cGAMP) IC50/THP(vir) IC50” value in assay [3] is over 148.

As to `C[C@H]1CS(=O)(=O)C(C)(C)C[C@]1(F)c1cc(Cl)cnc1O[C@H]1C[C@@H](C(=O)O)N(c2nc(C(F)F)nc3c2oc2ccccc23)C1` [Example 1.16], the IC50 was determined as 8240 nM in assay [1], 5 nM on Human cGAS, 6 nM in assay [2] and 8 nM in assay [3] (setting [4]). Moreover, the “Ratio THP(cGAMP) IC50/THP(vir) IC50” value in assay [3] was 1055.

As a reminder, the IC50 is the concentration that gives 50% inhibition.
